Measurements taken from ChEMBL document CHEMBL1201862, “PubChem BioAssay data set” (2004).
The source made the active and inactive calls.

Columns and labels:
[1] = molecular target: Cytochrome P450 2C19 (Homo sapiens, UniProt P33261); assay: Cytochrome panel assay with activity outcomes. Panel member name: p450-cyp2c19 Compounds with AC50 equal or less than 10 uM are considered active; format: functional
[2] = molecular target: Cytochrome P450 2C9 (Homo sapiens, UniProt P11712)
[3] = molecular target: T1, Cytochrome P450 1A2 (Homo sapiens, UniProt P05177)
T1 sequence (P05177 whole entry): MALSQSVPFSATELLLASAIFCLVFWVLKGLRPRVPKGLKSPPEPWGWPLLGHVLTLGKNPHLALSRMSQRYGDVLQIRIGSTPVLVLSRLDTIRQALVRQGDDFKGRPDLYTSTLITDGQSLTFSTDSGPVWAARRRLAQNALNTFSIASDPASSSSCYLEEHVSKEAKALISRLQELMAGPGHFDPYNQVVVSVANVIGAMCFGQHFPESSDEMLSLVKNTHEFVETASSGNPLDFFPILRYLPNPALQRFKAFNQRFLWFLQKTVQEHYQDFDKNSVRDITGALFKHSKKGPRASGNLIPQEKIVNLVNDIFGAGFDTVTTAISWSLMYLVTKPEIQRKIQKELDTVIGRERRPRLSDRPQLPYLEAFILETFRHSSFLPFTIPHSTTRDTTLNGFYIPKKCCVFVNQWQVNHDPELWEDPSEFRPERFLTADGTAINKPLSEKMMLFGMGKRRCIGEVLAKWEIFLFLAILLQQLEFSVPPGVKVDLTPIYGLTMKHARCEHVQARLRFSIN

[4] = growth suppression of PTEN-null colon cells, dose response, cell-based, HCT116 PTEN knockout (AID 1047); format: functional;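 note: HCT116 colon tumor cells with PTEN knocked out; cells exposed to compound for 60 hours before readout; potency for loss of cell viability measured by luminescence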
[5] = growth suppression of beta-catenin-knockout colon cells, dose response, cell-based, HCT116, human colon tumor (AID 1045); format: functional;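 note: HCT116 colon tumor cells with beta catenin knocked out; cells exposed to compound for 60 hours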
[6] = molecular target: T2, DNA repair and recombination protein RAD54-like (Homo sapiens, UniProt Q92698); assay: inhibitors of human RAD54 branch migration, confirmation, biochemical, fluorescence, cherry-picked samples, dose series (AID 651657); format: functional
T2 sequence (Q92698 whole entry): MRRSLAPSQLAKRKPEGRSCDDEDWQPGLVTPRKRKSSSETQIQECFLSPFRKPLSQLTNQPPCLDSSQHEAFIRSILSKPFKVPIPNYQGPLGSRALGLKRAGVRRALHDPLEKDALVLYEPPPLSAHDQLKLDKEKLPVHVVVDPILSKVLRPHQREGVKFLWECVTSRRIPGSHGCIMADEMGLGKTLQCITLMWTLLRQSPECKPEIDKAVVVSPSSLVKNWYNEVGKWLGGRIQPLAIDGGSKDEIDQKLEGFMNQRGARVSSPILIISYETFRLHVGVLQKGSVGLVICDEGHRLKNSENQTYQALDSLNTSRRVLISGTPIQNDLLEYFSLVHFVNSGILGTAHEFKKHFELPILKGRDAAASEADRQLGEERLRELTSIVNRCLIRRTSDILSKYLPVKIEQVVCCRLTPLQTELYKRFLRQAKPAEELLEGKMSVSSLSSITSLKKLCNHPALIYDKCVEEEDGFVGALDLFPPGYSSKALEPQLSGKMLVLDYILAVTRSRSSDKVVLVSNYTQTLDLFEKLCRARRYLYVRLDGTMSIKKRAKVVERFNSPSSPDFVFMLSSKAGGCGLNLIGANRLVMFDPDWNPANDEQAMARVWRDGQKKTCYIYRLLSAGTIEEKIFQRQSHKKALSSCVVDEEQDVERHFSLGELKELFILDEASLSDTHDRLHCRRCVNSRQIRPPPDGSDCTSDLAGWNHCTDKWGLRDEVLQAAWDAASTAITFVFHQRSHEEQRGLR

[7] = cells
[8] = cells; format: functional
[9] = molecular target: Estrogen receptor beta (Homo sapiens, UniProt Q92731); assay: ERβ–SRC-3 coactivator interaction inhibitors, confirmation, orthogonal assay, biochemical, ELISA, streptavidin-HRP readout (AID 1060)
[10] = HEp-2 cell cytotoxicity, dose response, cytotoxicity control for RSV inhibitor project, HTS (AID 2410); format: functional; conditions: human respiratory syncytial virus
[11] = molecular target: T3, Protein skinhead-1 (Caenorhabditis elegans, UniProt P34707); format: functional
T3 sequence (P34707 whole entry): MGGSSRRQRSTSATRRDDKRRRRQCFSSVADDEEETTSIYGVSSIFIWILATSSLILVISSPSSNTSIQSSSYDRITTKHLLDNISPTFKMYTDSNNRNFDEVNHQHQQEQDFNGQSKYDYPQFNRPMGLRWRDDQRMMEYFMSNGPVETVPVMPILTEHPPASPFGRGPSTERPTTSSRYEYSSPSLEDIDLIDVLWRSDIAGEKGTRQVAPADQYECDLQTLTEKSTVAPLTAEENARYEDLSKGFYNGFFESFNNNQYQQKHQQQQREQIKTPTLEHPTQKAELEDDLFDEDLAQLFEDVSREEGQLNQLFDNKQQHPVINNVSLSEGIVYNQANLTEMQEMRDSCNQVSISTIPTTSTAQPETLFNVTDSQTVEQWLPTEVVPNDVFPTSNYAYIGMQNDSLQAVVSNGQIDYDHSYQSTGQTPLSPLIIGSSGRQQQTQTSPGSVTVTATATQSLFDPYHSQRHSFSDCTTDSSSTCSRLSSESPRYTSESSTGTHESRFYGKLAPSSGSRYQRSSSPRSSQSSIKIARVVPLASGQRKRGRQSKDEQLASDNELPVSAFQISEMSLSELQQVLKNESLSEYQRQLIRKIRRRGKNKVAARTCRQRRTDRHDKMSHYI

Estrogen receptor beta, sequence (Q92731 whole entry): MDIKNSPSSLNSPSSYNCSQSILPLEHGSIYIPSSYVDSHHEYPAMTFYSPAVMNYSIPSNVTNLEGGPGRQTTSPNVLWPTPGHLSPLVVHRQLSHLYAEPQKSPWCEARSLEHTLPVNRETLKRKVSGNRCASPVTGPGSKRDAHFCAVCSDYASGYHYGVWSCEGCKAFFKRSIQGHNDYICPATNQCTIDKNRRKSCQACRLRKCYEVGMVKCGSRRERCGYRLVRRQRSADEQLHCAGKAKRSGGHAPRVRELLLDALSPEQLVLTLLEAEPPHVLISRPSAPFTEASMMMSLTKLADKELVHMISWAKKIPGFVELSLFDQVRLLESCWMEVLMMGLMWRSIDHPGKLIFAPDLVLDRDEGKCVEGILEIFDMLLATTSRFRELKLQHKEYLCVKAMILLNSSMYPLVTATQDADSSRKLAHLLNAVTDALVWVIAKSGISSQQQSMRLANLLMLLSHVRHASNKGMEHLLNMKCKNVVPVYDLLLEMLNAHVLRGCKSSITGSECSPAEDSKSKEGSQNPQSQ
Cytochrome P450 2C9, sequence (P11712 whole entry): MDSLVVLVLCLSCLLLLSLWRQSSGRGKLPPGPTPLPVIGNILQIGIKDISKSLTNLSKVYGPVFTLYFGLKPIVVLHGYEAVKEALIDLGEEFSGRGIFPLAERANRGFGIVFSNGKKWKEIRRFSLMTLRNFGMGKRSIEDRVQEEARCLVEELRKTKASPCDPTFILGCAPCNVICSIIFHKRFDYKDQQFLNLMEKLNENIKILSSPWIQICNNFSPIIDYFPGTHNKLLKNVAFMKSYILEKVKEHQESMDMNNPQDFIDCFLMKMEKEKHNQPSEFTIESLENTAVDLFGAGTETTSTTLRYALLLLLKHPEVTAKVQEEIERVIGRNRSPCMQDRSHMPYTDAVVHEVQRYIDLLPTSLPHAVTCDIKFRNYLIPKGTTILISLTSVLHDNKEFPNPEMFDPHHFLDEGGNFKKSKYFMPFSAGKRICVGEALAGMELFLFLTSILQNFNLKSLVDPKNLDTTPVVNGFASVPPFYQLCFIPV
Cytochrome P450 2C19, sequence (P33261 whole entry): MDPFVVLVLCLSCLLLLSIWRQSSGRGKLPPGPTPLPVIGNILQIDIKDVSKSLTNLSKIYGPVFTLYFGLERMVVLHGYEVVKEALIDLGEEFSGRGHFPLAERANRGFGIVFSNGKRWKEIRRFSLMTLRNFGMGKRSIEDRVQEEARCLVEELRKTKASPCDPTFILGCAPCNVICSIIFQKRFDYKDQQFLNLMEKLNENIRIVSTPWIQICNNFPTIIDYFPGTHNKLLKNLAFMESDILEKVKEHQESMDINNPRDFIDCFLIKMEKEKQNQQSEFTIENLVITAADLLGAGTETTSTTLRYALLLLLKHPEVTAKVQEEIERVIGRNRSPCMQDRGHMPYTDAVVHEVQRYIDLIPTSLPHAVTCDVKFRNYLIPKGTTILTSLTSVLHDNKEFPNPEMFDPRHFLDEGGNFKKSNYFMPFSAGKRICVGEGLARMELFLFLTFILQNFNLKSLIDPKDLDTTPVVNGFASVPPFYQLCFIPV

## COc1ncc2nc(C)c(=O)n(CCC#N)c2n1
[1]
  AC50: inconclusive
[2]
  AC50: inconclusive
[3]
  AC50: 15.8 µM (inconclusive)

## CCN(CC)CCNC(=O)c1cc2c(-c3ccc(Cl)cc3)nn(C)c2s1
[4]
  EC50: 5.5 µM (active)
[5]
  EC50: 4.09 µM (active)
[6]
  AC50: 6.7 µM (active)

## CCCC(=O)Nc1ccc(-c2nc3cc(C)c(C)cc3o2)cc1
[7]
  IC50: 48.2 µM (active)

## COc1ccc(C(=O)N2CC(c3ccc(Cl)cc3)CC2=O)cc1 (stereo not drawn)
[7]
  IC50: 31.5 µM (active)

## CSc1ccccc1NC(=O)c1cc(C(C)C)on1
[8]
  IC50: 27.9 µM (active)

## CN1CCN(c2nc(-c3cccc([N+](=O)[O-])c3)nc3ccccc23)CC1
[6]
  AC50: 7.36 µM (active)

## OC(COc1ccc(C2C=CCC2)cc1)CN1CCCCC1 (stereo not drawn)
[9]
  IC50: 13.1 µM (not active)
[4]
  EC50: 40.2 µM (active)
[5]
  EC50: 32 µM (active)

## COc1cc(C(=O)NCCC(C)C)c([N+](=O)[O-])cc1OC
[2]
  AC50: inconclusive

## COCCCn1c(Cc2csc(Nc3cccc(Cl)c3)n2)nnc1SCC(=O)OC
[9]
  IC50: 17 µM (not active)

## CC1CCCC(C)N1CC(=O)Nc1sc2c(c1C#N)CCC2 (stereo not drawn)
[9]
  IC50: 22.5 µM (not active)

## N#Cc1nc(-c2cccc3ccccc23)oc1N
[7]
  IC50: 23.2 µM (active)
[10]
  CC50: > 50 µM (active)

## c1ccc(-c2nnc(SCc3nnc(-c4cccs4)o3)o2)cc1
[8]
  IC50: 30.4 µM (active)

## CCN(CC)S(=O)(=O)c1cccc2c(N(C)C)cccc12
[11]
  IC50: > 100 µM (inactive)
[2]
  AC50: inconclusive

## O=C(c1ccccc1)N(Cc1ccco1)C1CCS(=O)(=O)C1 (stereo not drawn)
[1]; read-out: AC50
  AC50: 31.6 µM (inconclusive)
[2]
  AC50: inconclusive
